Results from the CheMixHub viscosity set.
“And” between values parts separate entries of the source, which are not always exact repeats. Equal values may be shown once. ± gives the uncertainty stated by the source.

Tests used:
[1] = xn = mol fraction of the nth substance listed

C=CCc1ccc2c(c1)OCO2
Conditions	viscosity [mPa·s]
298.15 K, 101 kPa	2.29 ± 0.028

CCN(CC)C(C)=O
Conditions	viscosity [mPa·s]
298.16 K, 101 kPa	1.226 ± 0.011

CC(C)(C)C1CCCCC1
102 kPa
Conditions	viscosity [mPa·s]
293.15 K	1.7 ± 0.02
303.15 K	1.42 ± 0.02
313.15 K	1.21 ± 0.02
323.15 K	1.04 ± 0.02

C1CCCC1
viscosity [mPa·s]
Conditions	293.15 K	303.15 K	313.15 K
100 kPa	0.428 ± 0.03	0.385 ± 0.03	0.348 ± 0.03
101 kPa	–	0.387 ± 0.0033	–
101.3 kPa	–	–	0.3545 ± 0.004

NCCO.O=S(=O)([N-]S(=O)(=O)C(F)(F)F)C(F)(F)F.[Li+]
Conditions	viscosity [mPa·s]
323.15 K, 101 kPa	1157 ± 260

CCC(C)CC(C)C (stereo unspecified)
100 kPa
Conditions	viscosity [mPa·s]
293.15 K	0.476 ± 0.01
298.15 K	0.455 ± 0.01
303.15 K	0.434 ± 0.009
308.15 K	0.416 ± 0.009
313.15 K	0.4 ± 0.009

C[n+]1ccn(CCCCCn2cc[n+](C)c2)c1.O=S(=O)([N-]S(=O)(=O)C(F)(F)F)C(F)(F)F.O=S(=O)([N-]S(=O)(=O)C(F)(F)F)C(F)(F)F
101 kPa
Conditions	viscosity
293.15 K	1125 ± 120 mPa·s and 1123 ± 120 mPa·s
303.15 K	554.9 ± 45 mPa·s and 556.8 ± 45 mPa·s
313.15 K	313.4 ± 20 mPa·s and 310.4 ± 19 mPa·s
323.15 K	192.3 ± 9 mPa·s and 188.8 ± 8.7 mPa·s

NCCO
viscosity
Conditions	293.15 K	298.15 K	303.15 K	313.15 K	318.15 K	323.15 K
101 kPa	31.3 ± 0.52 mPa·s	18.64 ± 7.5 mPa·s	15.34 ± 0.18 mPa·s and 14.05 ± 0.1 mPa·s	9.9 ± 4 mPa·s and 9.972 ± 0.14 mPa·s and 9.95 ± 0.07 mPa·s	8.1 ± 3.2 mPa·s	6.88 ± 0.08 mPa·s and 9.44 ± 0.18 mPa·s and 7.01 ± 0.1 mPa·s
101.3 kPa	–	–	–	9.702 ± 0.069 mPa·s	–	–

CCC(=O)CC
viscosity
Conditions	298.15 K	303.15 K	308.15 K	313.15 K	318.15 K
100 kPa	–	0.428 ± 0.017 mPa·s	–	0.366 ± 0.015 mPa·s	–
101 kPa	0.449 ± 0.006 mPa·s and 0.437 ± 0.016 mPa·s	–	0.396 ± 0.005 mPa·s and 0.393 ± 0.016 mPa·s	0.376 ± 0.011 mPa·s and 0.376 ± 0.005 mPa·s	–
101.33 kPa	0.408 ± 0.005 mPa·s	0.424 ± 0.012 mPa·s	0.373 ± 0.005 mPa·s	–	0.351 ± 0.005 mPa·s

CN1CCCC1=O
viscosity
Conditions	293.15 K	298 K	303 K	303.15 K	313 K	313.15 K	318 K	323 K	323.15 K
100 kPa	1.853 ± 0.076 mPa·s	–	–	–	–	–	–	–	–
101 kPa	1.91 ± 0.018 mPa·s	1.61 ± 0.16 mPa·s	1.5 ± 0.15 mPa·s	1.623 ± 0.016 mPa·s and 1.521 ± 0.019 mPa·s	1.29 ± 0.13 mPa·s	1.401 ± 0.014 mPa·s and 1.3 ± 0.52 mPa·s	1.22 ± 0.12 mPa·s	1.12 ± 0.11 mPa·s	1.231 ± 0.013 mPa·s

NCCO + CCCCCCO
viscosity [mPa·s], [1], 101.3 kPa
Conditions	x1 = 0.1	x1 = 0.2	x1 = 0.3	x1 = 0.4	x1 = 0.5	x1 = 0.6	x1 = 0.7	x1 = 0.8	x1 = 0.9
303.15 K	4.07 ± 0.07	4.48 ± 0.08	5.04 ± 0.09	5.68 ± 0.1	6.54 ± 0.11	7.62 ± 0.13	8.84 ± 0.15	10.4 ± 0.18	12.3 ± 0.22
313.15 K	3.08 ± 0.05	3.34 ± 0.06	3.72 ± 0.06	4.15 ± 0.07	4.7 ± 0.08	5.41 ± 0.09	6.17 ± 0.11	7.18 ± 0.13	8.31 ± 0.15
323.15 K	2.37 ± 0.04	2.57 ± 0.04	2.84 ± 0.05	3.13 ± 0.05	3.51 ± 0.06	3.98 ± 0.07	4.49 ± 0.08	5.16 ± 0.09	5.88 ± 0.1

CN1CCCC1=O + CC(C)O
[1], 298.15 K, 101 kPa
Conditions	viscosity [mPa·s]
x1 = 0.0609	1.8 ± 0.018
x1 = 0.1034	1.703 ± 0.017
x1 = 0.1399	1.641 ± 0.016
x1 = 0.1993	1.57 ± 0.015
x1 = 0.2332	1.539 ± 0.015
x1 = 0.3074	1.5 ± 0.015
x1 = 0.3626	1.454 ± 0.014
x1 = 0.4127	1.45 ± 0.014
x1 = 0.4612	1.481 ± 0.015
x1 = 0.5022	1.488 ± 0.015
x1 = 0.5599	1.497 ± 0.015
x1 = 0.6107	1.511 ± 0.015
x1 = 0.6683	1.53 ± 0.015
x1 = 0.7081	1.543 ± 0.015
x1 = 0.7567	1.561 ± 0.015
x1 = 0.794	1.579 ± 0.015
x1 = 0.8562	1.608 ± 0.016
x1 = 0.9199	1.633 ± 0.016

OCc1ccccc1
Conditions	viscosity
293.15 K, 100 kPa	6.421 ± 0.13 mPa·s
293.15 K, 101.33 kPa	6.536 ± 0.054 mPa·s
298.15 K, 101 kPa	4.936 ± 0.21 mPa·s and 5.54 ± 0.11 mPa·s and 5.737 ± 0.15 mPa·s
298.15 K, 101.3 kPa	5.313 ± 0.063 mPa·s
298.15 K, 101.33 kPa	5.276 ± 0.14 mPa·s
303.15 K, 101.3 kPa	4.609 ± 0.26 mPa·s and 4.515 ± 0.054 mPa·s
308.15 K, 101 kPa	3.66 ± 0.16 mPa·s and 4.045 ± 0.19 mPa·s
308.15 K, 101.3 kPa	3.877 ± 0.047 mPa·s
308.15 K, 101.33 kPa	3.891 ± 0.11 mPa·s
313.15 K, 101 kPa	3.121 ± 0.14 mPa·s and 3.614 ± 0.17 mPa·s and 3.51 ± 0.07 mPa·s
318.15 K, 101.33 kPa	2.945 ± 0.081 mPa·s
323.15 K, 101 kPa	2.646 ± 0.022 mPa·s and 2.548 ± 0.11 mPa·s
323.15 K, 101.33 kPa	2.591 ± 0.071 mPa·s

OCc1ccccc1 + CCCO
viscosity [mPa·s], [1], 101 kPa
Conditions	x1 = 0.0744	x1 = 0.1531	x1 = 0.2366	x1 = 0.3252	x1 = 0.4196	x1 = 0.5203	x1 = 0.6278	x1 = 0.7431	x1 = 0.8668
298.15 K	2.038 ± 0.092	2.197 ± 0.098	2.401 ± 0.11	2.651 ± 0.12	2.932 ± 0.13	3.25 ± 0.14	3.593 ± 0.16	3.99 ± 0.17	4.433 ± 0.19
303.15 K	1.796 ± 0.082	1.918 ± 0.087	2.083 ± 0.094	2.288 ± 0.1	2.52 ± 0.11	2.783 ± 0.12	3.071 ± 0.13	3.404 ± 0.15	3.776 ± 0.16
308.15 K	1.587 ± 0.073	1.687 ± 0.077	1.828 ± 0.083	2.002 ± 0.09	2.201 ± 0.099	2.429 ± 0.11	2.678 ± 0.12	2.967 ± 0.13	3.292 ± 0.14
313.15 K	1.368 ± 0.064	1.447 ± 0.067	1.562 ± 0.072	1.709 ± 0.078	1.877 ± 0.086	2.07 ± 0.094	2.282 ± 0.1	2.53 ± 0.11	2.807 ± 0.12

OCc1ccccc1 + O=[N+]([O-])c1ccccc1
[1], 303.15 K, 101 kPa
Conditions	viscosity [mPa·s]
x1 = 0.1725	1.292 ± 0.012
x1 = 0.2352	1.292 ± 0.012
x1 = 0.3083	1.389 ± 0.013
x1 = 0.4517	1.657 ± 0.015
x1 = 0.5919	2.015 ± 0.018
x1 = 0.6592	2.234 ± 0.02
x1 = 0.7706	2.658 ± 0.024
x1 = 0.8314	2.956 ± 0.026
x1 = 0.9106	3.486 ± 0.03

CC(=O)OC(C)=O
viscosity [mPa·s]
Conditions	298.15 K	313.15 K	323.15 K
101 kPa	0.842 ± 0.008	0.693 ± 0.007	–
101.33 kPa	0.831 ± 0.0083	–	0.611 ± 0.0061

NCCO + CC(C)O
viscosity [mPa·s], [1], 100 kPa
Conditions	x1 = 0.1	x1 = 0.2	x1 = 0.3	x1 = 0.4	x1 = 0.5	x1 = 0.6	x1 = 0.7	x1 = 0.8	x1 = 0.9
303.15 K	2.11 ± 0.04	2.53 ± 0.04	3.08 ± 0.05	3.86 ± 0.07	4.9 ± 0.08	6.12 ± 0.11	7.7 ± 0.13	9.55 ± 0.17	11.9 ± 0.2
313.15 K	1.63 ± 0.03	1.92 ± 0.03	2.31 ± 0.04	2.88 ± 0.05	3.55 ± 0.06	4.35 ± 0.08	5.37 ± 0.09	6.54 ± 0.12	7.97 ± 0.14
323.15 K	1.27 ± 0.02	1.49 ± 0.03	1.78 ± 0.03	2.21 ± 0.04	2.65 ± 0.05	3.22 ± 0.06	3.89 ± 0.07	4.69 ± 0.08	5.64 ± 0.1
